From patent US9233965B2, “3,4-dihydropyrrolo[1,2-A]pyrazine-2,8(1H)-dicarboxamide derivatives, preparation thereof and therapeutic use thereof for diseases involving casein kinase 1 epsilon and/or casein kinase 1 delta” (SANOFI, priority 2010, dated 2016) come the findings set out here.

pIC50: −log10 of the molar value.

Chain of casein kinase 1 epsilon (CK1 epsilon) (P49674 whole entry): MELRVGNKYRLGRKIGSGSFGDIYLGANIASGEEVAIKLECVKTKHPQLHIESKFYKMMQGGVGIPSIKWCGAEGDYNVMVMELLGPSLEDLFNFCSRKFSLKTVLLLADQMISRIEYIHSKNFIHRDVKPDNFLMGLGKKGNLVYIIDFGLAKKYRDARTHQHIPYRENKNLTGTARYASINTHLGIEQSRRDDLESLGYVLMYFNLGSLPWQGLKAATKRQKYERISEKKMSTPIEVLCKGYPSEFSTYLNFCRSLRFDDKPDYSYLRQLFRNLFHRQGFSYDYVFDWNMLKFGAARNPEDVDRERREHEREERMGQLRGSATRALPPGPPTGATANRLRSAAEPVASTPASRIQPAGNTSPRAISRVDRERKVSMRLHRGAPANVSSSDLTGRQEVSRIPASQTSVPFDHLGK

The test concerns the target casein kinase 1 epsilon (CK1 epsilon) (Homo sapiens (Human), UniProt P49674). The test is described as follows: Test A: inhibitory activity on CK1 epsilon, casein phosphorylation assay on ATP-33P filter plate. To be noted: IC50 values or IC50 ranges (result of several experiments), ATP 10 μM final. The test is classed as biochemical. Here is the method:
The capacity of the compounds of the invention to inhibit the phosphorylation of casein by casein kinase 1 epsilon and/or delta may be evaluated according to the procedures described in document US 2005/0 131 012.
Test A: Inhibitory Activity on CK1 Epsilon Measured by Assay on an ATP-^33P Filter Plate
The effect of the compounds on inhibition of the phosphorylation of casein by the enzyme casein kinase 1 epsilon (CK1 epsilon) is measured, using a casein assay via filtration of ATP-^33P in vitro.
Casein kinase 1 epsilon (0.58 mg/ml) is obtained via fermentation and purification processes performed according to methods that are well known to those skilled in the art, or may also be obtained from Invitrogen Corporation™ (human CK1 epsilon).
The compounds are tested at five different concentrations so as to generate IC50 values, i.e. the concentration at which a compound is capable of inhibiting the enzymatic activity by 50%, or alternatively the percentage of inhibition at a concentration of 10 micromolar.
“U”-bottomed Falcon plates are prepared by placing 5 μL of solutions of the compounds according to the invention at concentrations of 10, 1, 0.1, 0.01 or 0.001 μM in different wells. The solutions of the compounds according to the invention at these various concentrations are prepared by diluting in a test buffer (Tris 50 mM pH 7.5, MgCl2 […], DTT 2 mM and EGTA 1 mM) a stock solution in DMSO at a concentration of 10 mM. Next, 5 μL of dephosphorylated casein are added to a final concentration of 0.2 μg/μL, 20 μL of CK1 epsilon to a final concentration of 3 ng/μL, and 20 μL of ATP-^33P to a final concentration of 0.02 μCi/μL mixed with cold ATP (10 μM final—approximately 2×10^6 CPM per well). The final total test volume per well is equal to 50 μL.
The “U”-bottomed Falcon® test plate mentioned above is vortexed, and then incubated at room temperature for 2 hours. After 2 hours the reaction is stopped by adding an ice-cold solution of 65 μL of cold ATP (2 mM) prepared in test buffer.
100 μL of the reaction mixture are then transferred from the “U”-bottomed Falcon® plate into Millipore® MAPH filter plates, preimpregnated with 25 μL of ice-cold 100% TCA.
The Millipore MAPH filter plates are agitated gently and are left to stand at room temperature for at least 30 minutes to precipitate the proteins.
After 30 minutes, the filter plates are sequentially washed and filtered with 2×150 μL of 20% TCA, 2×150 μL of 10% TCA and 2×150 μL of 5% TCA (6 washes in total per plate/900 μL per well).
The plates are left to dry overnight at room temperature. Next, 40 μL of Microscint-20 Packard® scintillation liquid are added per well and the plates are closed in a leaktight manner. The radiation emitted by each well is then measured for 2 minutes in a TopCount NXT Packard® scintillation counter, in which the values of CPM/well are measured.
The percentage inhibition of the capacity of the enzyme to phosphorylate the substrate (casein) is determined for each concentration of test compound. These inhibition data expressed as percentages are used to calculate the IC50 value for each compound compared with the controls.
The kinetic studies determined the KM value for ATP as being 21 μM in this test system.
Table 2 below gives the IC50 values or the IC50 inhibition ranges (result of several experiments) for the phosphorylation of Casein Kinase 1 Epsilon for a number of compounds according to the invention.
Compound `CC(C)(C)NC(=O)N1CCn2c(c(C(N)=O)c(-c3ccc(OC(F)(F)F)cc3)c2C2CC2)C1` [Compound 44, N^2-tert-butyl-6-cyclo-propyl-7-[4-(trifluoromethoxy)phenyl]-3,4-dihydropyrrolo[1,2-a]pyrazine-2,8(1H)-dicarboxamide] gave a negative logarithm of the IC50 (pIC50) of 7.48.
The compound `NC(=O)c1c(-c2cccc(F)c2)c(Cl)n2c1CN(C(=O)NC1CCS(=O)(=O)C1)CC2` (stereo not shown) [Compound 102, 6-chloro-N^2-(1,1-dioxydotetrahydrothiophen-3-yl)-7-(3-fluorophenyl)-3,4-dihydropyrrolo[1,2-a]pyrazine-2,8(1H)-dicarboxamide] had a pIC50 of 7.96 to 8.40.
`NC(=O)c1c(-c2cccc(F)c2)c(Cl)n2c1CN(C(=O)NC1CCC(O)(C(F)(F)F)CC1)CC2` (stereo not drawn) [Compound 85, trans-6-chloro-7-(3-fluorophenyl)-N^2-(4-hydroxy-4-trifluoromethyl-cyclo-hexyl)-3,4-dihydropyrrolo[1,2-a]pyrazine-2,8(1H)-dicarboxamide]: the pIC50 was 8.70.
`NC(=O)c1c(-c2cccc(F)c2)c(Cl)n2c1CN(C(=O)NCCCC(F)(F)F)CC2` [Compound 81, 6-chloro-7-(3-fluorophenyl)-N^2-(4,4,4-trifluorobutyl)-3,4-dihydropyrrolo[1,2-a]pyrazine-2,8(1H)-dicarboxamide] gave a pIC50 of 7.80 to 8.70.
The compound `CON=C1CCC(NC(=O)N2CCn3c(Cl)c(-c4cccc(F)c4)c(C(N)=O)c3C2)CC1` (stereo not drawn) [Compound 86, trans-6-chloro-7-(3-fluorophenyl)-N^2-(4-methoxyimino-cyclohexyl)-3,4-dihydropyrrolo[1,2-a]pyrazine-2,8(1H)-dicarboxamide] gave a pIC50 of more than 9.00.
The figure for `COc1ccc(-c2c(C(N)=O)c3n(c2C2CC2)CCN(C(=O)NC2CC2)C3)cc1` [Compound 6, N^2-6-di-cyclo-propyl-7-(4-methoxyphenyl)-3,4-dihydropyrrolo[1,2-a]pyrazine-2,8(1H)-dicarboxamide] is 7.24 to 7.55; for `CN(C)S(=O)(=O)Nc1cccc(-c2c(C(N)=O)c3n(c2C2CC2)CCN(C(=O)NC(C)(C)C)C3)c1` [Compound 26, N^2-tert-butyl-6-cyclo-propyl-7-{3-[(dimethylsulfamoyl)amino]phenyl}-3,4-dihydropyrrolo[1,2-a]pyrazine-2,8(1H)-dicarboxamide] it is 6.28.
Consider `CC(C)(C)NC(=O)N1CCn2c(c(C(N)=O)c(-c3cccc(OC(F)(F)F)c3)c2C2CC2)C1` [Compound 35, N^2-tert-butyl-6-cyclo-propyl-7-[3-(trifluoromethoxy)phenyl]-3,4-dihydropyrrolo[1,2-a]pyrazine-2,8(1H)-dicarboxamide], for which the pIC50 is 7.60.
`CC(C)(C)NC(=O)N1CCn2c(c(C(N)=O)c(-c3ccc(OCC4CC4)cc3)c2C2CC2)C1` [Compound 37, N^2-tert-butyl-6-cyclo-propyl-7-[4-(cyclo-propylmethoxy)phenyl]-3,4-dihydropyrrolo[1,2-a]pyrazine-2,8(1H)-dicarboxamide] showed a pIC50 of 7.21.
In turn, `Cc1nnc(-c2ccc(-c3c(C(N)=O)c4n(c3C3CC3)CCN(C(=O)NC(C)(C)C)C4)cc2)o1` [Compound 23, N^2-tert-butyl-6-cyclo-propyl-7-[4-(5-methyl-1,3,4-oxadiazol-2-yl)phenyl]-3,4-dihydropyrrolo[1,2-a]pyrazine-2,8(1H)-dicarboxamide] gave a pIC50 of 7.19. This pIC50 and that of the compound before are within 0.2 log units of each other.
For the compound `CC(C)(C)ON=C1CCC(NC(=O)N2CCn3c(Cl)c(-c4cccc(F)c4)c(C(N)=O)c3C2)CC1` (stereo not drawn) [Compound 87, trans-6-chloro-7-(3-fluorophenyl)-N^2-(4-tert-butyloxyimino-cyclohexyl)-3,4-dihydropyrrolo[1,2-a]pyrazine-2,8(1H)-dicarboxamide], the pIC50 is more than 9.00.
For the compound `Cc1ccc(-c2c(C(N)=O)c3n(c2C2CC2)CCN(C(=O)NC(C)(C)C)C3)cc1` [Compound 12, N^2-tert-butyl-6-cyclo-propyl-7-(4-methylphenyl)-3,4-dihydropyrrolo[1,2-a]pyrazine-2,8(1H)-dicarboxamide], the pIC50 was 7.92.
The compound `CC1(O)CCC(NC(=O)N2CCn3c(Cl)c(-c4cccc(F)c4)c(C(N)=O)c3C2)CC1` (stereo not drawn) [Compound 84, trans-6-chloro-7-(3-fluorophenyl)-N^2-(4-hydroxy-4-methyl-cyclo-hexyl)-3,4-dihydropyrrolo[1,2-a]pyrazine-2,8(1H)-dicarboxamide] showed a pIC50 of 9.00.
The compound `CC(C)(C)NC(=O)N1CCn2c(c(C(N)=O)c(-c3ccc(C(=O)N4CCCC4)cc3)c2C2CC2)C1` [Compound 19, N^2-tert-butyl-6-cyclo-propyl-7-[4-(pyrrolidin-1-ylcarbonyl)phenyl]-3,4-dihydropyrrolo[1,2-a]pyrazine-2,8(1H)-dicarboxamide] showed a pIC50 of 6.23.
With `COc1ccc(-c2c(C(N)=O)c3n(c2C)CCN(C(=O)NC(C)(C)C)C3)cc1` [Compound 4, N^2-tert-butyl-7-(4-methoxyphenyl)-6-methyl-3,4-dihydropyrrolo[1,2-a]pyrazine-2,8(1H)-dicarboxamide], the pIC50 is 8.52 to 9.00.
In the case of `CC(C)(C)NC(=O)N1CCn2c(c(C(N)=O)c(-c3ccc(OCc4ccc(F)cc4)c(Cl)c3)c2C2CC2)C1` [Compound 42, N^2-tert-butyl-7-{3-chloro-4-[(4-fluorobenzyl)oxy]phenyl}-6-cyclo-propyl-3,4-dihydropyrrolo[1,2-a]pyrazine-2,8(1H)-dicarboxamide], the pIC50 is 7.80.
Turning to `CC(C)(C)NC(=O)N1CCn2c(c(C(N)=O)c(-c3ccc(N4CCOCC4)cc3)c2C2CC2)C1` [Compound 30, N^2-tert-butyl-6-cyclo-propyl-7-[4-(morpholin-4-yl)phenyl]-3,4-dihydropyrrolo[1,2-a]pyrazine-2,8(1H)-dicarboxamide], the pIC50 was 6.48. Compared with the last compound, the pIC50 is 1.32 log units lower.
As for `CC(C)(C)NC(=O)N1CCn2c(c(C(N)=O)c(-c3ccc(C4CCCCC4)cc3)c2C2CC2)C1` [Compound 14, N^2-tert-butyl-7-(4-cyclo-hexylphenyl)-6-cyclo-propyl-3,4-dihydropyrrolo[1,2-a]pyrazine-2,8(1H)-dicarboxamide], the pIC50 was 5.96 to 6.87.
In the case of `C[C@@H]1CC(NC(=O)N2CCn3c(Cl)c(-c4cccc(F)c4)c(C(N)=O)c3C2)C[C@H](C)O1` (stereo partly drawn) [Compound 100, cis-6-chloro-N^2-(2,6-dimethyl-tetrahydro-2H-pyran-4-yl)-7-(3-fluorophenyl)-3,4-dihydropyrrolo[1,2-a]pyrazine-2,8(1H)-dicarboxamide], the negative-log IC50 (pIC50) is less than 9.00.
In the case of `CC(C)(C)NC(=O)N1CCn2c(c(C(N)=O)c(-c3ccccc3F)c2C2CC2)C1` [Compound 45, N^2-tert-butyl-6-cyclo-propyl-7-(2-fluorophenyl)-3,4-dihydropyrrolo[1,2-a]pyrazine-2,8(1H)-dicarboxamide] it was 7.92; in that of `CC(C)(C)NC(=O)N1CCn2c(c(C(N)=O)c(-c3ccc(-c4ccccc4)cc3)c2C2CC2)C1` [Compound 15, 7-(biphenyl-4-yl)-N^2-tert-butyl-6-cyclo-propyl-3,4-dihydropyrrolo[1,2-a]pyrazine-2,8(1H)-dicarboxamide], 8.40 to 8.70.
The figure for `CC(C)(C)NC(=O)N1CCn2cc(-c3ccccc3)c(C(N)=O)c2C1` [Compound 1, N^2-tert-butyl-7-phenyl-3,4-dihydropyrrolo[1,2-a]pyrazine-2,8(1H)-dicarboxamide] is 7.46 to 7.92.

In general, pIC50 refers to −log10 of the IC50, conventionally taken in molar units. A lower pIC50 goes with a large IC50.
